From US10766926B2, “Composition for autophagy inhibiting in cell, and pharmaceutical composition for preventing or treating tumor disease, or inhibiting anti-cancer agents resistance containing the same” (L-BASE CO., LTD, priority 2018, dated 2020)

What was measured:
H1975 cell line = experiment: MTT assay, resistance of H1975 cell line to osimertinib after polypeptide treatment; assay type: cell-based; settings: for anticancer activity through the inhibition of autophagy: conclusion of Example 5
Description: Additionally, after the treatment with the polypeptide 1, polypeptide 2, and polypeptide 3, respectively, the MTT assay was performed so as to confirm the resistance to osimertinib (Tagrisso), an anticancer agent.
Specifically, an equal number of cells of the H1975 cell line were plated into a 96-well cell culture plate and treated with the polypeptides (1 to 3) for 24 hours. Then, the cells were treated with osimertinib (Tagrisso), an anticancer agent, which was subjected to a 1/10-fold serial dilution, for 24 hours and were confirmed using MTT. As an experiment to utilize the principle that NADH present in the mitochondria of a living cell reacts with MTT to form formazan, formazan was dissolved in DMSO and its absorbance was measured at 570 nm and thereby the growth activity of the cells was confirmed.

PC9-ER cell line [1] = experiment: MTT assay, resistance of PC9-ER cell line to anticancer agent after polypeptide treatment; assay type: cell-based; settings: conclusion of Example 2
Description: Additionally, the PC9-ER cell line was treated with the polypeptide 1, polypeptide 2, and GNTITIKT (polypeptide 3), respectively, and the MTT assay was performed so as to confirm the resistance of the PC9-ER cell line to anticancer agents.
(§1) Specifically, the PC9-ER cell line was plated on a 96-well cell culture plate and treated with each of the polypeptides (1 to 3) for 24 hours. Then, the cells were treated for with an anticancer agent subjected to a 1/10-fold serial dilution for 24 hours and confirmed using MTT. As an experiment to utilize the principle that NADH present in the mitochondria of a living cell reacts with MTT to form formazan, formazan was dissolved in DMSO and its absorbance was measured at 570 nm and thereby the growth activity of the cells was confirmed.

[2] = test system: PC9 cell line and PC9-ER cell line; experiment: MTT assay, resistance of PC9 and PC9-ER cell lines to anticancer agents; assay type: cell-based; settings: anticancer agent 1/10-fold serial dilution, 24 hours, FIGS. 3A and 3B
Description: The cancer cell line (PC9) used in the present invention was cultured in a minimum essential medium in a conditioned incubator (37° C.) supplemented with 10% fetal bovine serum and antibiotics. The cancer cell line (PC9-ER) was constructed to have resistance by exposing to erlotinib as an anticancer agent for a long period of time.
Additionally, the MTT assay was performed so as to confirm the resistance of the PC9 cell line and the PC9-ER cell line to anticancer agents.
as §1, with “Specifically, an equal number of the PC9 cell line and” for “Specifically,”, “were cultured in” for “was plated on”, “plate,” for “plate and”, “treated” for “treated with each of the polypeptides (1 to 3) for 24 hours. Then, the cells were treated for”, “hours,” for “hours”

PC9-ER cell line [3] = experiment: western blot of autophagy mechanism proteins in PC9-ER cell line treated with polypeptide; assay type: cell-based; settings: FIG. 4
Description: An attempt was made to confirm the inhibitory effects of SPTPKT (polypeptide 1) and QTATAKA (polypeptide 2) against autophagy, based on the results that the expression of ATG5 and ATG5-ATG12 proteins which are known to be involved in autophagy in the cancer cell line (PC9-ER).
Specifically, the PC9-ER cell line was treated with each of the polypeptide 1 and the polypeptide 2 and the expression levels of Beclin1, p-Belclin1, ATG5-ATG12, LC3 I, and LC3 II (i.e., proteins associated with autophagy mechanism) were compared by western blot method, and the results are shown in FIG. 4.

MCF7^R cell line [4] = experiment: western blot of autophagy controlling proteins in MCF7^R cell line; assay type: cell-based; settings: FIG. 12
Description: MCF7^R cancer cell line having resistance to anticancer agents was constructed to have resistance by exposing to celastrol for a long period of time
To examine the effects of the polypeptide 1 and the polypeptide 2 on the proteins of autophagy controlling mechanism, western blot was performed using each labeled antibody in the MCF7^R cell line.

H1975 cells = experiment: western blot of autophagy controlling proteins in H1975 cells; assay type: cell-based; settings: FIG. 10
PC9-ER cell line [5] = experiment: western blot of tumor tissue from PC9-ER tumor-bearing nude mice; assay type: in vivo, athymic nude mice (BALB/C nude); settings: 50-200 μg/mouse, FIG. 9
Description: (§2) Specifically, athymic nude mice (BALB/C nude, 5 to 6-week old females) were subcutaneously injected on the side with the PC9-ER cell line (2×10^6 cells/mouse) to induce tumor. When the tumor volume reached about 150 mm^3, the polypeptide 2 was injected a total of 5 times through the caudal vein and the changes in the tumor size were examined. The tumor volume was directly measured using a caliper and calculated by the following equation (length×width×height×0.5). In order to confirm the inhibitory effect of the polypeptide 2 against tumor formation, the peptide (at concentrations of 0 μg/mouse, 50 μg/mouse, 100 μg/mouse, and 200 μg/mouse) was injected 5 times through the caudal vein from day 25 at 3 day intervals. On the 41st day, the tumors were separated and the sizes of the tumor volumes were measured, and western blot was performed using each labeled antibody.

PC9-ER cell line [6] = experiment: inhibitory effect against tumor formation, PC9-ER tumor in nude mice; assay type: in vivo, athymic nude mice (BALB/C nude); settings: PC9-ER tumor in nude mice, 0, 50, 100, 200 μg/mouse, 5 injections through caudal vein, measured on day 41; FIGS. 8A-8C
Description: as §2

MCF7^R cell line [7] = experiment: LC3 immunofluorescence staining in MCF7^R cell line; assay type: cell-based; settings: 24 hours treatment, confocal microscopy, FIG. 13
Description: Additionally, after the treatment with the polypeptide 2 in the MCF7^R cell line, the immunofluorescence staining was performed.
(§3) Specifically, after treating the polypeptide 2 on the MCF7^R cell line for 24 hours, the cells were fixed at room temperature using 4% formaldehyde. Then, the cells were reacted at room temperature for 30 minutes so as to prevent inaccurate binding to antibodies using PBS containing 0.1% BSA, and allowed to react with LC3 antibodies (cell signaling) at 4° C. for 24 hours. After removing the antibodies, the cells were washed with PBS and allowed to react with secondary antibodies (Thermo Fisher) labeled with Alexa 488 fluorescence at room temperature for 1.5 hours. After the reaction, the cells from which antibodies were removed were washed with PBS and stained with DAPI (Thermo Fisher) for 1 minute.

PC9-ER cell line [8] = experiment: LC3 immunofluorescence staining in PC9-ER cell line; assay type: cell-based; settings: 24 hours after treatment, confocal microscopy, FIG. 5
Description: Additionally, the cells were subjected to immunofluorescence staining after treating the PC9-ER cell line with the polypeptide 2.
as §3, with “Specifically, 24 hours” for “Specifically,”, “PC9-ER” for “polypeptide 2 on the MCF7^R”, “with the polypeptide 2,” for “for 24 hours,”

Molecule | anticancer activity through the inhibition of autophagy (H1975 cell line) | inhibitory effect against autophagy in the cancer cell line having resistance to anticancer agents (PC9-ER cell line [1]) | resistance of PC9-ER cell line to the anticancer agent compared to PC9 cell line [2] | expression levels of Beclin1, p-Beclin1, ATG5-ATG12, LC3 I and LC3 II proteins (PC9-ER cell line [3]) | expression level of p62 protein (MCF7^R cell line [4]) | expression levels of p-Beclin1, ATG5, ATG5-ATG12, LC3 I and LC3 II proteins (MCF7^R cell line [4]) | expression of p-AMPK, p-Beclin1, ATG5, ATG5-ATG12, LC3 I and LC3 II (H1975 cells) | other results
GNTITIKT [polypeptide 3] | anticancer activity | inhibitory effect against autophagy | – | – | – | – | – | –
CC(=O)O[C@H]1C(=O)[C@@]2(C)[C@H]([C@H](OC(=O)c3ccccc3)[C@]3(O)C[C@H](OC(=O)[C@H](O)[C@@H](NC(=O)c4ccccc4)c4ccccc4)C(C)=C1C3(C)C)[C@]1(OC(C)=O)CO[C@@H]1C[C@@H]2O [taxol] | – | – | higher resistance | – | – | – | – | –
CC(=O)O[C@@]12CO[C@@H]1C[C@H](O)[C@@]1(C)C(=O)[C@H](O)C3=C(C)[C@@H](OC(=O)[C@H](O)[C@@H](NC(=O)OC(C)(C)C)c4ccccc4)C[C@@](O)([C@@H](OC(=O)c4ccccc4)[C@H]21)C3(C)C [docetaxel] | – | – | higher resistance | – | – | – | – | –
SPTPKT [polypeptide 1] | anticancer activity | inhibitory effect against autophagy | – | lowered | increased | reduced | lowered | –
QTATAKA [polypeptide 2] | anticancer activity | inhibitory effect against autophagy | – | lowered | increased | reduced | lowered | expression of p-AMPK, Beclin1 and p-Beclin1 proteins in tumor tissue (PC9-ER cell line [5]): decreased in a concentration-dependent manner; expression of p-mTOR and p62 proteins in tumor tissue (PC9-ER cell line [5]): increased in a concentration-dependent manner; resistance to osimertinib (Tagrisso), polypeptide at different concentrations (H1975 cell line; MTT): reduced in a concentration-dependent manner; size of tumors (tumor volume) (PC9-ER cell line [6]): significantly reduced; expression level of LC3 puncta (MCF7^R cell line [7]): lowered; expression level of LC3 puncta (PC9-ER cell line [8]): lowered
